Measured values from patent publication US7067112B2, “Cephaibols: novel antiparasitics from Acremonium tubakii, process for their production, and use thereof” (Sanofi-Aventis Deutschland GmbH, priority 1999, dated 2006).
Values after ≈ are worked out from the molar mass of the structure shown. Square brackets hold non-standard residues; d marks the D form. Peptide text beside a SMILES is read from it. Hyp = O=C(O)[CH]1C[CH](O)CN1; Phe(ol) = N[CH](CO)Cc1ccccc1; Iva = CC[C](C)(N)C(=O)O; Aib = CC(C)(N)C(=O)O

Columns and labels:
[1] = system: Enterococcus faecalis ATCC 29212; experiment: minimal inhibitory concentration (MIC); type: cell-based
[2] = system: Klebsiella aerogenes 1082 E; experiment: minimal inhibitory concentration (MIC); type: cell-based
[3] = system: Pseudomonas aeruginosa ATCC 27853; experiment: minimal inhibitory concentration (MIC); type: cell-based
[4] = system: Pasteurella multocida P 48; experiment: minimal inhibitory concentration (MIC); type: cell-based
[5] = system: larvae of the chicken roundworm Ascaridia galli; experiment: larval development test (in vitro) for anthelmintic action; type: cell-based; conditions: A. galli L2 larvae, 5 days medication
Protocol: For the testing of the action of the cephaibols on helminths, an in vitro test (larval development test) was carried out with larvae of the chicken roundworm Ascaridia galli. Embryonate eggs of A. galli were surface-sterilized by treatment with 5% strength sodium hypochlorite solution and, after removal of this solution, mechanically opened by means of rotating glass beads (5 mm). The hatched L2 larvae were enriched via larval enrichment processes, taken up in nutrient medium and incubated at 41° C. and 10% CO2.
48 hours after hatching, the larvae were incubated (41° C., 10% CO2) in microtiter plates (96 well) for 5 days with medicated medium (200 μl) in the concentrations 200, 100, 50 . . . 0.1 μg/ml. During the 5-day incubation period, motility, morphology, and vitality were checked microscopically and documented on a daily basis. After medication, the larval culture was incubated for 48 hours with Neutral Red in a concentration of 0.16%; after removal of the Neutral Red by change of medium, the enrichment of the vital dye in the intestine of the larvae was assessed as an index for active food intake and thus as proof of the vitality. The medication of the larvae with cephaibol A in the concentrations 200, 100, 50, and 25 μg/ml led to 100% mortality; at a concentration of 12.5 μg/ml and 6.25 μg/ml, the mortality was 92% and 20% respectively.

[6] = solubility (physicochemical properties)
From the text: (§1) The physicochemical and spectroscopic properties of the cephaibols according to the invention can be summarized as follows: […]

[7] = system: Pseudomonas aeruginosa 1771; experiment: minimal inhibitory concentration (MIC); type: cell-based
[8] = system: cat flea=Ctenocephalides felis; experiment: flea larval test (action on ectoparasites); type: in vivo; conditions: depending on the dose (2000, 1000, 500, 250 ppm etc. in blood meal), in comparison with the solvent control
Protocol: The action against ectoparasites was checked in the flea larval test (cat flea=Ctenocephalides felis). 5 mg of cephaibol A were dissolved in 0.5 ml of acetone and mixed into 500 mg of blood meal (defibrinated sheep blood). After the solvent had evaporated, 2 g of quartz sand were mixed with medicated blood meal such that preparation concentrations of 2000, 1000, 500, 250 ppm etc. resulted. 15 flea eggs per medicated sample or solvent control were added to the mixture of medicated blood meal and quartz sand, which was then incubated at 37° C. and high atmospheric humidity. The larval development, pupation and development to the adult stage were checked at an interval of 3–5 days and the mortality rates were documented.

[9] = system: Pasteurella multocida 3;tox.pos.; experiment: minimal inhibitory concentration (MIC); type: cell-based
[10] = system: Pasteurella haemolytica P 53; experiment: minimal inhibitory concentration (MIC); type: cell-based
[11] = system: Klebsiella oxytoca 1522 E; experiment: minimal inhibitory concentration (MIC); type: cell-based
[12] = system: Bordetella bronchiseptica 9; experiment: minimal inhibitory concentration (MIC); type: cell-based
[13] = system: Escherichia coli DC 0; experiment: minimal inhibitory concentration (MIC); type: cell-based
[14] = system: Enterobacter cloacae 1321 E; experiment: minimal inhibitory concentration (MIC); type: cell-based
[15] = system: Pseudomonas aeruginosa ATCC 9027; experiment: minimal inhibitory concentration (MIC); type: cell-based
[16] = system: Escherichia coli TEM; experiment: minimal inhibitory concentration (MIC); type: cell-based
[17] = system: Pasteurella haemolytica 7; experiment: minimal inhibitory concentration (MIC); type: cell-based
[18] = stability (physicochemical properties); conditions: in neutral, mildly acidic and mildly alkaline medium
From the text: as §1

[19] = system: Pseudomonas aeruginosa 1771 M; experiment: minimal inhibitory concentration (MIC); type: cell-based
[20] = system: Escherichia coli ATCC 25922; experiment: minimal inhibitory concentration (MIC); type: cell-based
[21] = system: Enterobacter cloacae P 99; experiment: minimal inhibitory concentration (MIC); type: cell-based
[22] = system: Bordetella bronchiseptica 10; experiment: minimal inhibitory concentration (MIC); type: cell-based
[23] = system: Enterococcus hirae ATCC 10541; experiment: minimal inhibitory concentration (MIC); type: cell-based
[24] = system: Mycoplasma mycoides LC
[25] = system: Escherichia coli DC 2; experiment: minimal inhibitory concentration (MIC); type: cell-based
[26] = system: Staphylococcus aureus 285; experiment: minimal inhibitory concentration (MIC); type: cell-based
[27] = system: Streptococcus pyogenes 308 A; experiment: minimal inhibitory concentration (MIC); type: cell-based
[28] = system: Escherichia coli 1507 E; experiment: minimal inhibitory concentration (MIC); type: cell-based
[29] = system: Staphylococcus aureus ATCC 29213; experiment: minimal inhibitory concentration (MIC); type: cell-based
[30] = system: Bordetella bronchiseptica ATCC 4617; experiment: minimal inhibitory concentration (MIC); type: cell-based
[31] = system: Mycoplasma mycoides L
[32] = system: Streptococcus pyogenes 77 A; experiment: minimal inhibitory concentration (MIC); type: cell-based
[33] = system: Pseudomonas aeruginosa 77/2; experiment: minimal inhibitory concentration (MIC); type: cell-based
[34] = system: Mycoplasma gallisepticum; experiment: minimal inhibitory concentration (MIC); type: cell-based

With `CCC(C)(NC(=O)C(CC(C)C)NC(=O)CNC(=O)C(C)(C)NC(=O)C(C)(C)NC(=O)C(C)(C)NC(=O)C(C)(C)NC(=O)C(Cc1ccccc1)NC(C)=O)C(=O)NC(C)(C)C(=O)N1CC(O)CC1C(=O)NC(CCC(N)=O)C(=O)NC(C)(CC)C(=O)N1CC(O)CC1C(=O)NC(C)(C)C(=O)N1CCCC1C(=O)NC(CO)Cc1ccccc1` (stereo not drawn) [Cephaibol A, AcPhe-Aib-Aib-Aib-Aib-Gly-Leu-Iva-Aib-Hyp-Gln-Iva-Hyp-Aib-Pro-Phe-ol] (Ac-F[Aib][Aib][Aib][Aib]GL[Iva][Aib][Hyp]Q[Iva][Hyp][Aib]P[Phe(ol)]; configuration not given here) the MIC [1] was 64 µg/mL (≈ 38.3 µM), the MIC [2] was >128 µg/mL and the MIC [3] was >128 µg/mL. For the same compound, the MIC [4] was >128 µg/mL, the mortality ([5]; 6.25 μg/ml) was 20% and the mortality ([5]; 12.5 μg/ml) was 92%. The mortality ([5]; 25 μg/ml) was 100%, the mortality ([5]; 50 μg/ml) was 100% and the mortality ([5]; 100 μg/ml) was 100%. For the same compound, the mortality ([5]; 200 μg/ml) was 100%, the “solubility in polar organic solvents” value ([6]; polar organic solvents) was “soluble” and the solubility in water ([6]; water) was “only slightly soluble”. For the same compound, the MIC [7] was >128 µg/mL, the larvicidal action [8] was > 90% and the MIC [9] was >128 µg/mL. For the same compound, the MIC [10] was >128 µg/mL, the MIC [11] was >128 µg/mL and the MIC [12] was >128 µg/mL. For the same compound, the MIC [13] was >128 µg/mL, the MIC [14] was >128 µg/mL and the MIC [15] was >128 µg/mL. The MIC [16] was >128 µg/mL, the MIC [17] was >128 µg/mL and the stability [18] was “stable”. The MIC [19] was >128 µg/mL, the MIC [20] was >128 µg/mL and the MIC [21] was >128 µg/mL. The MIC [22] was >128 µg/mL, the MIC [23] was 64 µg/mL (≈ 38.3 µM) and the MIC [24] was 128 µg/mL (≈ 76.6 µM). For the same compound, the MIC [25] was >128 µg/mL, the MIC [26] was 8 µg/mL (≈ 4.79 µM) and the MIC [27] was 32 µg/mL (≈ 19.2 µM). For the same compound, the MIC [28] was >128 µg/mL, the MIC [29] was 16 µg/mL (≈ 9.58 µM) and the MIC [30] was >128 µg/mL. For the same compound, the MIC [31] was 64 µg/mL (≈ 38.3 µM), the MIC [32] was >128 µg/mL and the MIC [33] was >128 µg/mL. The MIC [34] was 64 µg/mL (≈ 38.3 µM).
